This passage reports IC50, CLint scaled and half-life results from patent US20230339977A1, “SUBSTITUTED HETEROARYL COMPOUND, AND COMPOSITION AND APPLICATION THEREOF” (SUNSHINE LAKE PHARMA CO., LTD., priority 2020, published 2023).

One data set relates to JAK1/TYK2. Description: Cell level activity test of JAK1/TYK2 (IFN-α induced STAT3 phosphorylation in PBMC). The data set is classed as cell-based. To be noted: Homo sapiens; P-STAT3 by ELISA in PBMC, compound 1 h, IFN-α 5000 U/mL 15 min; read-out: IC50 nM (JAK 1 /TYK2).
The test system of the next data set is CTLL-2 cells. Nature of the data set: Inhibitory effect on CTLL-2 cell proliferation. The data set is classed as cell-based. Conditions: alamar blue, read-out: IC50 (nM) CTLL-2 (h). How it is done:
CTLL-2, P-STAT3 and TF-1 cells were seeded in a 96-well culture plate at a density of 20,000/well with 90 µL per well, and the blank well was an equal amount of complete medium. 10 ul of different compound dilutions were added to each plate row BC, DE, and FG, and 5% DMSO medium with equal volume of the compound was added to positive wells and negative wells, and the final concentration of DMSO was 0.5%. After incubating in a 37° C. incubator for 20 h, alamar blue was added, the plate was incubated for 4 h, the fluorescence intensity of each well under the conditions of […], 580 nm wavelength was measured, and the IC50 value was calculated.

Data set [1] is described as follows: Stability in rat liver microsomes. The data set is classed as in vitro ADME. The method, then: The stability of the compounds of the present invention in human and rat liver microsomes can be tested by the following two methods:
Human or rat liver microsomes were incubated in polypropylene tubes in duplicate wells. A typical incubation mixture included human or rat liver microsomes (0.5 mg protein/mL), target compound (5 µM), and a total volume of 200 µL of NADPH (1.0 mM) potassium phosphate buffer (PBS, 100 mM, pH 7.4), the compound was dissolved in DMSO and diluted with PBS, the final concentration of the DMSO solution was 0.05%. Human or rat liver microsomes were incubated at 37° C. in an air-connected water bath. After pre-incubation for 3 minutes, […] was added to start the reaction. The same volume of ice-cold acetonitrile was added to terminate the reaction at different time points (0, 5, 10, 15, 30 and 60 min). Samples were stored at -80° C. until LC/MS/MS analysis.
The linear concentration range of each target compound was determined, and then, the concentration of the target compounds in the human or rat liver microsomes incubation mixture was determined by LC/MS/MS method.
Parallel incubations were performed using denatured microsomes as a negative control and dextromethorphan (70 µM) as a positive control. Negative control was incubated at 37° C., the reaction was terminated at different time points (0, 15 and 60 minutes); positive control was incubated at 37° C., the reaction was terminated at different time points (0, 5, 10, 15, 30 and 60 minutes). Positive and negative control samples were used in each assay to ensure the integrity of the microsomal incubation system.
In addition, the stability data of the compounds of the present invention in human or rat liver microsomes can also be obtained from the following tests:
Human or rat liver microsomes were incubated in polypropylene tubes in duplicate wells. A typical incubation mixture included human or rat liver microsomes (final concentration: 0.5 mg protein/mL), target compound (final concentration: 1.5 µM) and a total volume of 30 µL of K-buffer solution (containing 1.0 mM EDTA, 100 mM, pH 7.4). Compounds were dissolved in DMSO and diluted with K-buffer solution, the final concentration of DMSO was 0.2%. […]
For each reaction, in vivo intrinsic hepatic clearance CLint is extrapolated by plotting the compound concentration (expressed as a percentage) in human or rat liver microsomal incubations as a percentage relative to time zero (ref.: Naritomi Y, Terashita S, Kimura S, Suzuki A, Kagayama A, Sugiyama Y. Prediction of human hepatic clearance from in vivo animal experiments and in vitro metabolic studies with liver microsomes from animals and humans. Drug Metabolism and Disposition 2001, 29: 1316-1324.).

For the next data set, the system named is P-STAT3. Description: Effect of TYK2 inhibitor on P-STAT3 expression in PBMC induced by IFN-α (Table 3, P-STAT3 (h)). Type of data set: cell-based. To be noted: Homo sapiens; P-STAT3 by ELISA, PBMC stimulated with IFN-α 5000 U/mL. The method, then:
Whole blood was collected from healthy subjects, anticoagulated with heparin sodium, and PBMC (human peripheral blood mononuclear cells) were extracted. PBMC were seeded in 96-well culture plates at a density of 1*106/well. The initial concentration of the positive drug BMS986165 was 1000 nM, after diluting 10 times, the positive drug BMS986165 was diluted 8 concentrations by 3 times; the concentration of the other tested compounds was 333 nM. Positive wells and negative wells were added with the same volume of DMSO as the compound, and the final concentration of DMSO was 0.5%. After the compound was added, the cells were incubated at 37° C. for 1 h, and then stimulated by the addition of IFN-α at a final concentration of 5000 U/mL. An equal volume of medium was added to the negative wells and incubated for 15 min. The cells were centrifuged to remove the supernatant, and lysed, and the P-STAT3 was measured according to the instructions of the ELISA kit, the absorbance was read at 450 nm, and the IC50 value or inhibition rate was calculated.
CTLL-2, P-STAT3 and TF-1 cells were seeded in a 96-well culture plate at a density of 20,000/well with 90 µL per well, and the blank well was an equal amount of complete medium. […]

Each structure is given as a SMILES string.

`CC(=O)Nc1cc2c(-c3ccc4c(n3)C3(CCOC3)OC4)cn(C)c2cn1` (centres unmarked) [Example 2, N-(3-(4,5-Dihydro-2H,5′H-Spiro[Furan-3,7′-Furo[3,4-b]Pyridin]-2′-yl)-1-Methyl-1H-Pyrrolo[2,3-c]Pyridin-5-yl)Acetamide]: the results for the IC50 in the data set on JAK1/TYK2, in the data set with CTLL-2 cells and with P-STAT3 were 95.8 nM, over 10000 nM and 95.8 nM, respectively. The CLint scaled in data set [1] (pH 7.4, in vivo intrinsic hepatic clearance extrapolated) is 0.924 L/h/kg. Besides, the half-life in data set [1] (rat, pH 7.4, read-out: Rat T½) was 2.69 h.
